Where a name gives a salt, the structure may show the parent alone.
What was measured:
Assay type in all cases: in vivo
[1] = tested on: LPS-induced NFkB activation; assay: NFkB-luciferase reporter mice assay (LPS-induced endotoxemia); conditions: for inhibition of LPS-induced NFkB activation: 20 nanomoles test compound i.p. 30 minutes prior to LPS 2 mg/kg, 6 hrs, IVIS luciferase imaging
Method: (§1) Compound preparation and delivery. All 65 identified compounds were received in solid form and stored at 4° C. until use. Stock solutions of each compound were made by dissolving the appropriate amount of each compound in dimethyl sulfoxide (DMSO) to yield a concentration of 10 mM. Immediately prior to injection into experimental animals, the compounds were diluted to an experimental concentration of 100 uM in phosphate-buffered saline (PBS). Total concentration of DMSO in the final diluted drug was 1%. Compounds were closely examined to insure that no precipitate formed prior to injection and were stored on ice until injection. All compounds were given via intraperitoneal (i.p.) injection in a total volume of 200 ul using a 1 cc syringe and 27 gauge needle. In all experiments listed below, the compounds were delivered to the experimental mice 30 minutes prior to injection with lipopolysaccharide (LPS) to induce endotoxemia. Control animals not receiving compound received 1% DMSO dissolved in PBS. Following drug injection, the mice were observed closely in their cages for signs of immediate toxicity or adverse reaction to the drug, including but not limited to piloerection, tachypnea, bleeding, abnormal or aggressive behavior, signs of altered mental status, and level of activity.
(§2) Induction of endotoxemia. All mice were housed and cared for at the Rangos Research Center, Children's Hospital of Pittsburgh (Pittsburgh, Pa.). All experiments were approved by the Children's Hospital of Pittsburgh Animal Care Committee and by the Institutional Review Board of the University of Pittsburgh. Swiss Webster (CFW) and NFkB-luciferase reporter mice were obtained from The Jackson Laboratory. Throughout the course of all experiments, mice were housed 4 per cage with access to food, water, and standard bedding. Endotoxemia was induced in all experiments by i.p. injection of LPS (Escherichia coli 0111:B4 purified by gel filtration chromatography, >99% pure, Sigma-Aldrich) at a dose of 2 mg/kg for 6 hours. At the end of each experiment, all animals were euthanized by CO2 hypoxia and cervical dislocation.
NFkB-luciferase reporter mice assay. NFkB-luciferase reporter mice, in which the […], were subjected to endotoxemia with or without pretreatment with experimental compounds. The experimental compounds treated by this assay were compounds 1-6, with compounds 1-3 tested first and compounds 4-6 tested later. For both experiments, the mice were 6 weeks old on the date of the experiment. […] After whole body imaging, an additional injection of luciferin is given and animals were euthanized, organs were harvested, and the extent of NFkB activation within various tissues was further analyzed by an additional luminescence image of the individual organs. […]

iNOS mRNA = assay: CFW-NEC mouse model (formula feeding), iNOS mRNA levels; conditions: 1 mg/kg, i.p., once daily for the first four days of the five day model; relative to RPLO
Source text: Inducible nitric oxide synthase (iNOS) is associated with necrotizing enterocolitis (NEC) in human infants. In a second set of experiments, the CFW-NEC mouse model system for NEC was used to evaluate the effect of various compounds from TABLES 1 and 2 above on iNOS mRNA levels. A model system for NEC was induced in newborn mouse pups by formula feeding, where control animals were breast-fed (Sodhi et al., 2010, Gastroenterol. 138(1):185-196; Richardson et al., 2010, Gastroenterol. 139(3):904-917). […] Note that RPLO stands for 505 ribosomal subunit protein L15, an acknowledged housekeeping gene, which means that it is a constitutive gene expressed at relatively constant levels by all cells and is thus used as a reference for comparing other genes which may vary under experimental conditions. In this same model system, levels of TLR4 mRNA levels were also evaluated. […] In contrast, the level of TLR4 was not increased in FF animals treated with C34 (1 mg/kg, i.p. once daily for the first four days of the five day model) and indeed mRNA levels were 30 percent below normal (see FIG. 14).

TLR4 = biological target: T1, TLR4 (Mus musculus, UniProt Q9JHF9+Q9QUK6); assay: CFW endotoxemia assay (observation of behavior and phenotype after LPS); conditions: CFW mice, 20 nanomoles compound i.p. 30 minutes prior to LPS 2 mg/kg, 6 hours; for Observation (Compound “Hits”): listed as “Hits”; for Observation (Compound “Negatives”): listed as “Negatives”
T1 construct: Swiss Webster (CFW) and NFkB-luciferase reporter mice were obtained from The Jackson Laboratory; tissue The Jackson Laboratory; host or cells: whole live Swiss Webster (CFW) mice
T1 sequence (Q9QUK6 26-835): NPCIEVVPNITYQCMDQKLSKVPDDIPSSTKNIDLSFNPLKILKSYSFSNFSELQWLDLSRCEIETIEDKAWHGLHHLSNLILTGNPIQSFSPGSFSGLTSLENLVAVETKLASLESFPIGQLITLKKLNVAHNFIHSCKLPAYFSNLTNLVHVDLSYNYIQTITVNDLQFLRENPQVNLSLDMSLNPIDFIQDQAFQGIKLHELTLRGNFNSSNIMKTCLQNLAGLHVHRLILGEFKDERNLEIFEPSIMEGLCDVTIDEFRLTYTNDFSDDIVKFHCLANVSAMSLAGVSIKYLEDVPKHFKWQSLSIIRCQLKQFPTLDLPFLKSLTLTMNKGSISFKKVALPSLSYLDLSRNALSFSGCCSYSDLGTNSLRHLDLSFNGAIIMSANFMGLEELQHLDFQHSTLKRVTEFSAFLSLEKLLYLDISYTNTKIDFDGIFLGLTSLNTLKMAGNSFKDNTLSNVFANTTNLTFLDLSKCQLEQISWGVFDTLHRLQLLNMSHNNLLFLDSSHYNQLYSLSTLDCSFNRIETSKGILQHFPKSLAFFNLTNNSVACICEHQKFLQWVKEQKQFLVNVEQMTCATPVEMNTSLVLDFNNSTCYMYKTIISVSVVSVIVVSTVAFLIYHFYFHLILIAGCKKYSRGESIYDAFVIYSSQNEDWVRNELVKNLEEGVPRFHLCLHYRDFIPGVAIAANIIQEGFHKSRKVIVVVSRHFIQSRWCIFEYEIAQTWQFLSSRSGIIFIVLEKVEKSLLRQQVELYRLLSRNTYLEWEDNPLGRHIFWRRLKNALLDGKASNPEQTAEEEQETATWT
T1 sequence (Q9JHF9 19-160): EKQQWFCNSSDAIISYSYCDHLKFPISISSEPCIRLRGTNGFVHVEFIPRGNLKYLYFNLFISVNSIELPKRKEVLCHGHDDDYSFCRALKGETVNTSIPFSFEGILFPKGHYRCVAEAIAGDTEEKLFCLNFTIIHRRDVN
Method: as §1, §2
CFW endotoxemia assay. In order to effectively screen the entire compound list, the remaining compounds (7-60) were screened in a model of endotoxemia using CFW mice. Three separate experiments were performed: First, Compound 7 along with a repeat of compound 4 (n=3 mice per compound, mice age 5 weeks) were tested. Controls were saline injection alone (n=1), LPS 2 mg/kg 6 hrs (n=2). Second, compounds 3, 4, 6, 8-32 were tested (n=1 mouse each, 3 week old mice). Controls were saline injection alone (n=1), LPS 2 mg/kg 6 hrs (n=2), LPS 10 mg/kg 6 hrs (n=2), Bay 11 pretreatment 20 mg/kg for 30 minutes prior to LPS 2 mg/kg 6 hrs. Third, compounds 8, 16, 33-60 were tested (n=1 mouse each, 3 week old mice). Controls were saline injection alone (n=1), LPS 2 mg/kg 6 hrs (n=2), Bay 11 pretreatment 20 mg/kg for 30 minutes prior to LPS 2 mg/kg 6 hrs. Following 6 hours of endotoxemia, mice from the second and third experiments were observed within their cages and videotaped to document behavior and phenotypic differences to assess for an inhibitory effect of compound pretreatment on the effects of LPS. Mice were identified by a number previously placed using permanent marker on their tails. The degree of piloerection, tachypnea, location in the cage (center of cage versus corners), degree of activity, and behavior relative to other animals was observed and documented via video for each mouse.
Less activity, tachypnea, and piloerection are considered symptomatic of endotoxemia, so a decrease in these is consistent with TLR inhibition by the administered compound. Note that compounds listed as negatives may still be T4Ics at other concentrations or conditions.

Row | Compound | Observation (Compound “Hits”) (TLR4) | further results
1 | CCCCCCCCCCCCCCCCCCCCCCCCCC(=O)NC(COC1OC(CO)C(O)C(O)C1O)C(O)C(O)CCCCCCCCCCCCCC [Compound 2, N-{(1S,2S,3R)-1-[(beta-L-glycero-hexopyranosyloxy)methyl]-2,3-dihydroxyheptadecyl}hexacosanamide] |  | inhibition of LPS-induced NFkB activation [1]: exception
2 | CC(=O)NC1C(OP(=O)(O)O)OC(CO)C(O)C1O (stereo not drawn) [Compound 4, 3-acetamido-4,5-dihydroxy-6-(hydroxymethyl)tetrahydro-2H-pyran-2-yl dihydrogen phosphate, sodium salt] |  | inhibition of LPS-induced NFkB activation ([1]; phosphate, sodium salt): greatest inhibitory activity
3 | CC(=O)N[C@H]1C(O)O[C@H](CO)[C@H](O)[C@@H]1O.O (stereo partly drawn) [Compound 16, 2-(acetylamino)-2-deoxy-D-galactopyranose hydrate] |  | NFκB signalling (luciferase imaging) ([1]; LPS 2 mg/kg plus compound 1 mg/kg i.p.): reduced NFκB signalling
4 | CC(=O)NC1C(O)OC(CO)[C@@H](O[C@@H]2OC(CO)[C@H](O)C(O)C2O)C1O (stereo partly drawn) [Compound 27, 2-(acetylamino)-2-deoxy-4-O-hexopyranosylhexopyranose] |  | increase of iNOS mRNA level in formula-fed (FF) pups (iNOS mRNA): much less
5 | C=CCO[C@@H]1O[C@H](CO)[C@@H](O)[C@H](O)[C@H]1NC(C)=O [Compound 50, allyl 2-(acetylamino)-2-deoxy-beta-D-glycero-hexopyranoside] | More active | 
6 | CC(=O)NC1C(O)OC(CO)C(O)C1O [Compound 52, 2-(acetylamino)-2-deoxy-beta-D-glycero-hexopyranose] | More active, less piloerection | 
7 | CCO[C@@H]1O[C@H](CO)[C@@H](O)[C@H](O)[C@H]1NC(C)=O [Compound 54, ethyl 2-(acetylamino)-2-deoxy-beta-D-glycero-hexopyranoside] | Less piloerection, less tachypnea | 
8 | CCO[C@@H]1O[C@H](COC(C)=O)[C@@H](OC(C)=O)[C@H](OC(C)=O)[C@H]1NC(C)=O [Compound 55, ethyl 3,4,6-tri-O-acetyl-2-(acetylamino)-2-deoxy-beta-D-glycero-hexopyranoside] | Less piloerection, less tachypnea, more active | 
9 | CCCCCCCCCCCCCCCCOC1OC(COC(C)=O)C(OC(C)=O)C(OC(C)=O)C1NC(C)=O (stereo not drawn) [Compound 61, [5-acetamido-3-acetyloxy-2-(acetyloxymethyl)-6-hexadecoxy-oxan-4-yl] acetate] | Less piloerection, less tachypnea | 
10 | COC1OC(COC(C)=O)C(OC(C)=O)C(OC(C)=O)C1NC(C)=O (stereo not drawn) [Compound 62, (5-acetamido-3,4-diacetyloxy-6-methoxy-oxan-2-yl)methyl acetate] |  | Observation (Compound “Negatives”) (TLR4): Nearly static, little movement, rigors
11 | CCOC1OC(CO)C(O)C(O)C1NC(C)=O (stereo not drawn) [Compound 63, N-[2-ethoxy-4,5-dihydroxy-6-(hydroxymethyl)oxan-3-yl]acetamide] | More mobile, less piloerection | 
12 | (2R,3S,4R,5R,6R)-5-acetamido-2-(acetoxymethyl)-6-(((3aR,5R,5aS,8aS,8bR)-2,2,7,7-tetramethyltetrahydro-3aH-bis[1,3]dioxolo[4,5-b:4′,5′-d]pyran-5-yl)methoxy)tetrahydro-2H-pyran-3,4-diyl-diacetate [Compound 38] |  | Observation (Compound “Negatives”) (TLR4): Less active

From patent US10933077B2, “TLR4 inhibitors for the treatment of human infectious and inflammatory disorders” (UNIVERSITY OF PITTSBURGH—OF THE COMMONWEALTH SYSTEM OF …, priority 2010, dated 2021)
